Assay results reported in patent publication US12441723B2, “Pyrazole compounds, formulations thereof, and a method for using the compounds and/or formulations” (Rigel Pharmaceuticals, Inc., priority 2019, dated 2025).
Counter-ions that a name gives are not always drawn.

Test: Physical and chemical stability of salts of I-18, 1 week (XRPD, HPLC purity)
Format: physicochemical
Settings: for Area (%) of HPLC peak RRT 1.00: main peak; for Area (%) of HPLC peak RRT 1.17: peak = parent compound formed by hydrolysis; for Form change: XRPD
Protocol: The physical and chemical stability of the K salt, Arginine salt, Choline salt and Tris salt were evaluated under conditions of 25° C./60% RH and 40° C./75% RH for 1 week. Each sample was added into 3 mL glass vials, sealed by parafilm with several holes, and kept under tested condition. After one week, samples was taken for XRPD and HPLC purity test.

[1] = 25° C./60% RH, 1 week, listed as tris salt
[2] = 40° C./75% RH, 1 week, listed as tris salt

CCO[C@H]1CC[C@H](n2cc(NC(=O)c3csc(-c4cnn(C(C)OP(=O)(O)O)c4)n3)c(-c3nc(F)ccc3F)n2)CC1 (stereo partly shown) [I-49, 1-(4-(4-((3-(3,6-difluoropyridin-2-yl)-1-((1r,4r)-4-ethoxycyclohexyl)-1H-pyrazol-4-yl)carbamoyl)thiazol-2-yl)-1H-pyrazol-1-yl)ethyl dihydrogen phosphate tris salt]
Area (%) of HPLC peak RRT 1.13 (25° C./60% RH, 1 week): 0.06%
Area (%) of HPLC peak RRT 0.77 [1]: <0.03%
Area (%) of HPLC peak RRT 1.45 [1]: 0.35%
Area (%) of HPLC peak RRT 1.71 [1]: 0.80%
Area (%) of HPLC peak RRT 1.73 [1]: 0.55%
HPLC purity change [1]: no HPLC purity decrease
Area (%) of HPLC peak RRT 1.00 [1]: 96.61%
Area (%) of HPLC peak RRT 1.17 [1]: 1.63%
Form change (25° C./60% RH/1 week, listed as Tris salt): no form change and No
Area (%) of HPLC peak RRT 0.77 [2]: 0.03%
Area (%) of HPLC peak RRT 1.45 [2]: 0.47%
Area (%) of HPLC peak RRT 1.71 [2]: 0.88%
Area (%) of HPLC peak RRT 1.73 [2]: 0.84%
HPLC purity change [2]: a purity decrease was observed
Area (%) of HPLC peak RRT 1.00 [2]: 95.03%
Area (%) of HPLC peak RRT 1.17 [2]: 2.69%
Form change (40° C./75% RH/1 week, listed as Tris salt): no form change and No
Initial purity (area %) (HPLC, before storage, listed as Tris salt): 96.06 area %
Area (%) of HPLC peak RRT 0.77 (Initial, listed as tris salt): <0.03%
Area (%) of HPLC peak RRT 1.13 (Initial, listed as tris salt): 0.07%
Area (%) of HPLC peak RRT 1.45 (Initial, listed as tris salt): 0.37%
Area (%) of HPLC peak RRT 1.71 (Initial, listed as tris salt): 0.86%
Area (%) of HPLC peak RRT 1.73 (Initial, listed as tris salt): 0.76%
Area (%) of HPLC peak RRT 1.00 (Initial, listed as tris salt): 96.06%
Area (%) of HPLC peak RRT 1.17 (Initial, listed as tris salt): 1.87%
